According to US10131649B2, “Bicyclic compounds as pest control agents” (BAYER CROPSCIENCE AKTIENGESELLSCHAFT, priority 2014, dated 2018):
Read-outs that look alike come from different tables or passages of the source.

Key:
[1] = log P by HPLC on reversed-phase columns (OECD Guideline 117), [a] acidic pH 2.7, [b] neutral pH 7.8; format: physicochemical; conditions: reversed-phase (C18) HPLC column
Procedure: The log P values were determined in accordance with OECD Guideline 117 (EC Directive 92/69/EEC) by HPLC (high-performance liquid chromatography) using reversed-phase (RP) columns (C18), by the following methods:
[a] The LC-MS determination in the acidic range is carried out at pH 2.7 with 0.1% aqueous formic acid and acetonitrile (contains 0.1% formic acid) as eluents; linear gradient from 10% acetonitrile to 95% acetonitrile.
[b] LC-MS determination in the neutral range is effected at pH 7.8 with 0.001 molar aqueous ammonium hydrogencarbonate solution and acetonitrile as eluents; linear gradient from 10% acetonitrile to 95% acetonitrile.
Calibration is carried out using unbranched alkan-2-ones (having 3 to 16 carbon atoms) with known log P values (log P values determined on the basis of the retention times by linear interpolation between two successive alkanones).

[2] = system: nematode larvae (Cooperia curticei); assay: Cooperia curticei test; format: in vivo; conditions: application rate 20 ppm; after 5 days; 100% = all larvae killed
Procedure: (§1) Solvent: dimethyl sulphoxide
(§2) To produce a suitable preparation of active compound, 10 mg of active compound are mixed with 0.5 ml of dimethyl sulfoxide and the concentrate is diluted with “Ringer's solution” to the desired concentration.
Vessels containing the active compound preparation of the desired concentration are populated with about 40 nematode larvae (Cooperia curticei).
(§3) After 5 days, the kill in % is determined. 100% means that all the larvae have been killed; 0% means that none of the larvae have been killed.

[3] = system: larvae of the red stomach worm (Haemonchus contortus); assay: Haemonchus contortus test; format: in vivo; conditions: application rate 20 ppm; after 5 days; 100% = all larvae killed
Procedure: Haemonchus contortus—Test
as §1, §2
Vessels containing the active compound preparation of the desired concentration are populated with about 40 larvae of the red stomach worm (Haemonchus contortus).
as §3

[4] = system: green peach aphid (Myzus persicae); assay: Myzus persicae spray test (Chinese cabbage leaf discs); format: in vivo; conditions: foliar, 144 h, read-out: efficacy in %
Procedure: (§4) Myzus persicae—Spray Test
Solvent: • 78 parts by weight of acetone • 1.5 parts by weight of dimethylformamide
(§5) Emulsifier: alkylaryl polyglycol ether
(§6) To produce a suitable preparation of active compound, 1 part by weight of active compound is dissolved using the specified parts by weight of solvent and made up with water containing an emulsifier concentration of 1000 ppm until the desired concentration is attained. To produce further test concentrations, the formulation is diluted with emulsifier-containing water.
Discs of Chinese cabbage leaves (Brassica pekinensis) infested by all stages of the green peach aphid (Myzus persicae) are sprayed with an active compound formulation of the desired concentration.
After 6 days, the efficacy in % is determined. 100% means that all the aphids have been killed; 0% means that no aphids have been killed.

[5] = system: caterpillars of the armyworm (Spodoptera frugiperda); assay: Spodoptera frugiperda spray test; format: in vivo; conditions: application rate 500 g/ha; after 7 days; maize leaf discs; 100% = all caterpillars killed
Procedure: Spodoptera frugiperda—Spray Test
(§7) Solvent: • 78.0 parts by weight of acetone • 1.5 parts by weight of dimethylformamide
as §5, §6
Leaf discs of maize (Zea mays) are sprayed with an active compound formulation of the desired concentration and, after drying, populated with caterpillars of the armyworm (Spodoptera frugiperda).
After 7 days, the efficacy in % is determined. 100% means that all the caterpillars have been killed; 0% means that no caterpillar has been killed.

[6] = system: larvae of the mustard beetle (Phaedon cochleariae); assay: Phaedon cochleariae spray test; format: in vivo; conditions: application rate 500 g/ha; after 7 days; 100% = all beetle larvae killed
Procedure: Phaedon cochleariae—Spray Test
as §7, §5, §6
Discs of Chinese cabbage leaves (Brassica pekinensis) are sprayed with an active compound preparation of the desired concentration and, after drying, populated with larvae of the mustard beetle (Phaedon cochleariae).
After 7 days, the efficacy in % is determined. 100% means that all the beetle larvae have been killed; 0% means that no beetle larvae have been killed.

[7] = system: green peach aphid (Myzus persicae); assay: Myzus persicae spray test (bell pepper plants); format: in vivo; conditions: application rate 4 ppm, after 6 days, 100% = all aphids killed
Procedure: as §4
Solvent: 7 parts by weight of dimethylformamide
as §5
as §6, with “water. If the addition of ammonium salts or/and penetrants is required, these are each added in a concentration of 1000 ppm to the formulation solution.” for “water.”
Bell pepper plants (Capsicum annuum) severely infested with the green peach aphid (Myzus persicae) are treated by spraying with the active compound formulation in the desired concentration.
After 6 days, the kill in % is determined. 100% means that all of the aphids have been killed; 0% means that none of the aphids have been killed.

[8] = system: southern root-knot nematode (Meloidogyne incognita); assay: Meloidogyne incognita test; format: in vivo; conditions: application rate 20 ppm; after 14 days; lettuce; 100% = no galls found
Procedure: Meloidogyne incognita—Test
Solvent: 125.0 parts by weight of acetone
To produce a suitable active compound preparation, 1 part by weight of active compound is mixed with the stated amount of solvent and the concentrate is diluted with water to the desired concentration.
Vessels are filled with sand, active compound solution, an egg/larvae suspension of the southern root-knot nematode (Meloidogyne incognita) and lettuce seeds. The lettuce seeds germinate and the plants develop. The galls develop on the roots.
After 14 days, the nematicidal efficacy in % is determined by the formation of galls. 100% means that no galls were found; 0% means that the number of galls on the treated plants corresponds to the untreated control.

[9] = system: greenhouse red spider mite (Tetranychus urticae); assay: Tetranychus urticae spray test, OP-resistant; format: in vivo; conditions: application rate 500 g/ha; after 6 days; bean leaf discs; 100% = all spider mites killed
Procedure: Tetranychus urticae—Spray Test, OP-Resistant
as §7, §5, §6
Discs of bean leaves (Phaseolus vulgaris) infested with all stages of the greenhouse red spider mite (Tetranychus urticae) are sprayed with an active compound formulation of the desired concentration.
After 6 days, the efficacy in % is determined. 100% means that all the spider mites have been killed; 0% means that no spider mites have been killed.

[10] = acidic pH 2.7, read-out: logP[a]
[11] = neutral pH 7.8, read-out: logP[b]

Row | SMILES | chromatographic logP [1, 10] | chromatographic logP [1, 11] | pest or weed control at 500 g/ha [4] [%] | further results
1 | Cc1ccc(-c2ccc3nn(-c4cccnc4)cc3c2)nc1 [Example 65] | 1.23 | 2.25 | 90 | efficacy (kill in %) [2]: 90%; efficacy (kill in %) [3]: 80%
2 | Clc1ccc(-c2ccc3nn(-c4cccnc4)cc3c2)nc1 [Example 67] | 2.8 | 2.78 | 100 | efficacy (kill in %) [2]: 80%; efficacy (kill in %) [3]: 80%
3 | FC(F)(F)c1ccn(-c2ccc3nn(-c4cccnc4)cc3c2)n1 [Example 56, 2-(3-Pyridyl)-5-[3-(trifluoromethyl)pyrazol-1-yl]indazole] | 2.83 | 2.79 | 90 | efficacy (kill in %) [2]: 90%
4 | CN(C)C(=O)c1ccc2nn(-c3cnn(C)c3)cc2c1 [Example 38] | – | – | – | efficacy in % [5]: 100%; efficacy in % [6]: 100%
5 | Fc1cncc(-n2cc3cc(C(F)(F)F)ccc3n2)c1 [Example 16] | – | – | 100 | efficacy in % [6]: 100%
6 | Cc1cc(C)c(-c2ccc3nn(-c4cccnc4)cc3c2)cc1SCC(F)(F)F [Example 51, 5-[2,4-Dimethyl-5-(2,2,2-trifluoroethylsulphanyl)phenyl]-2-(3-pyridyl)indazole] | 4.42 | 4.4 | 90 | efficacy (kill in %) [7]: 100%
7 | CSCn1ccc(-c2ccc3nn(-c4cccnc4)cc3c2)n1 [Example 62] | 1.97 | 2.11 | 90 | –
8 | CCSc1ccc(-c2ccc3nn(-c4cccnc4)cc3c2)nc1 [Example 80] | 2.87 | 3.03 | 100 | –
9 | CSCCNC(=O)c1ccc2nn(-c3cccnc3)cc2c1 [Example 85] | 1.45 | 1.5 | 90 | –
10 | c1cncc(-c2ccc3nn(-c4cccnc4)cc3c2)c1 [Example 57, 2,5-Bis(3-pyridyl)indazole] | 0.88 | 1.71 | 90 | efficacy (kill in %) [2]: 80%
11 | CN(CC(F)F)C(=O)c1ccc2nn(-c3cccnc3)cc2c1 [Example 86] | 1.55 | 1.55 | 100 | –
12 | Cc1cc(C)c([S+]([O-])CC(F)(F)F)cc1NC(=O)c1ccc2nn(-c3cccnc3)cc2c1 (centres unmarked) [Example 97] | 2.2 | 2.22 | 100 | –
13 | CSCn1cc(-c2ccc3nn(-c4cccnc4)cc3c2)cn1 [Example 63] | 2.02 | – | 90 | –
14 | FC(F)(F)Cn1cc(-c2ccc3nn(-c4cccnc4)cc3c2)cn1 [Example 99, 2-(Pyridin-3-yl)-5-[1-(2,2,2-trifluoroethyl)-1H-pyrazol-4-yl]-2H-indazole] | 2.12 | 2.12 | 90 | nematicidal efficacy in % (formation of galls) [8]: 90%
15 | CCN(CC)C(=O)c1ccc2nn(-c3cccnc3)cc2c1 [Example 89] | 1.63 | 1.65 | 100 | –
16 | CCSc1ccnc(-c2ccc3nn(-c4cccnc4)cc3c2)c1 [Example 76, 5-[4-(Ethylsulphanyl)pyridin-2-yl]-2-(pyridin-3-yl)-2H-indazole] | 1.62 | 2.84 | 90 | efficacy (kill in %) [2]: 80%
17 | Fc1ccnc(-c2ccc3nn(-c4cccnc4)cc3c2)c1 [Example 101] | 2.04 | 2.21 | 90 | –
18 | Clc1ccnc(-c2ccc3nn(-c4cccnc4)cc3c2)c1 [Example 69] | 2.62 | 2.66 | 100 | –
19 | Cn1cc(-c2ccc3nn(-c4cccnc4)cc3c2)cn1 [Example 58, 5-(1-Methylpyrazol-4-yl)-2-(3-pyridyl)indazole] | 1.51 | 1.57 | 90 | –
20 | Fc1cccc(-c2ccc3nn(-c4cccnc4)cc3c2)n1 [Example 104] | 2.4 | 2.44 | 90 | nematicidal efficacy in % (formation of galls) [8]: 90%
21 | Clc1cccnc1-c1ccc2nn(-c3cccnc3)cc2c1 [Example 68] | 2.17 | 2.21 | 100 | –
22 | FC(F)(F)c1cnn(-c2ccc3nn(-c4cccnc4)cc3c2)c1 [Example 55, 2-(3-Pyridyl)-5-[4-(trifluoromethyl)pyrazol-1-yl]indazole] | 2.77 | 2.74 | 90 | –
23 | CCSc1cccc(-c2ccc3nn(-c4cccnc4)cc3c2)n1 [Example 79] | 3.57 | 3.57 | 100 | –
24 | Cc1cc(F)c(NC(=O)c2ccc3nn(-c4cccnc4)cc3c2)cc1SCC(F)(F)F [Example 91] | 3.22 | 3.12 | – | pest or weed control at 100 g/ha [4]: 90%
25 | c1ccc(-c2ccc3nn(-c4cccnc4)cc3c2)nc1 [Example 59, 5-(2-Pyridyl)-2-(3-pyridyl)indazole] | 1.13 | 1.93 | – | pest or weed control at 100 g/ha [4]: 90%
26 | CS(=O)(=O)CCNC(=O)c1ccc2nn(-c3cccnc3)cc2c1 [Example 95] | 0.9 | 0.95 | 90 | –
27 | Cc1cc(F)c(C(=O)N(C)c2ccc3nn(-c4cnn(C)c4)cc3c2)cc1[S+]([O-])CC(F)(F)F (centres unmarked) [Example 117] | – | – | – | efficacy in % [9]: 90%
